According to US20100184851A1, “INHIBITION OF CELL PROLIFERATION” (priority 2008, published 2010):
Where a name gives a salt, the structure may show the parent alone. Read-outs that look alike come from different tables or passages of the source.

What was measured:
Rb:Raf-1 binding = molecular target: T1, Rb:Raf-1 binding (Homo sapiens, UniProt P06400); assay: GST-Rb/GST-Raf-1 ELISA, inhibition of Rb:Raf-1 binding
T1 construct: a glutathione S-transferase (GST) Raf-1 (1-149aa) overnight at 4° C; made in house
T1 sequence (P06400 1-928): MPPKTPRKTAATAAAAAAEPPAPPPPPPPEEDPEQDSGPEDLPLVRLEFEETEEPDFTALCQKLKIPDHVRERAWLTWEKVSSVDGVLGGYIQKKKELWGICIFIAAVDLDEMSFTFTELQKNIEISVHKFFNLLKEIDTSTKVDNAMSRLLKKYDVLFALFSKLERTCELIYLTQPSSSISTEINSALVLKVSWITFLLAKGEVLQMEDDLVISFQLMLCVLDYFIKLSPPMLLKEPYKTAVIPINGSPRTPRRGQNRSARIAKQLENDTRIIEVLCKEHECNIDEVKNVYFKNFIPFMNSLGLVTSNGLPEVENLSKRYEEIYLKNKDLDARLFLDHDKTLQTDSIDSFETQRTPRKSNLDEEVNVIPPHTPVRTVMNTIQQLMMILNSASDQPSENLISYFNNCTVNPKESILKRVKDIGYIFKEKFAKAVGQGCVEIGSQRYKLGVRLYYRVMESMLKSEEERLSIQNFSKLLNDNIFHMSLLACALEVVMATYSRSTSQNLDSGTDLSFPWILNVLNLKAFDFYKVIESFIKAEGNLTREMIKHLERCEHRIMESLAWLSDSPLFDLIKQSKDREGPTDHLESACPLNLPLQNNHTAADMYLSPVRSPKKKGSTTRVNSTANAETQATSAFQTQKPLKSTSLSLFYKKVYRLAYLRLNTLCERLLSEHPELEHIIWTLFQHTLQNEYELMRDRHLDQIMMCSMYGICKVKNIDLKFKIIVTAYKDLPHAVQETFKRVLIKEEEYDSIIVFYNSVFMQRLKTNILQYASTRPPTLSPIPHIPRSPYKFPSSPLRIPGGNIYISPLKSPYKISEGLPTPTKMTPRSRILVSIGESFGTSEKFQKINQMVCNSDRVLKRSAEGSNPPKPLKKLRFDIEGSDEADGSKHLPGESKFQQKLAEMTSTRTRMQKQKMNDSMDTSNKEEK
Method: Cell culture and transfection. The human promyelocytic leukemia cell line U937 was cultured in RPMI (Mediatech, Hernden, Va.) containing 10% fetal bovine serum (FBS; Mediatech). U2-OS, Saos-2, MCF7, PANC1 and MDA-MB-231 cell lines were cultured in Dulbecco modified Eagle Medium (DMEM; Mediatech) containing 10% FBS. A549 cells and A549 shRNA Rb cell lines were maintained in Ham F-12K supplemented with 10% FBS. ShRNA cells lines were maintained in media containing 0.5 μg/mL puromycin. H1650, PC-9 and Aspc1 cell line were cultured in RPMI (Gibco/Invitrogen, Carlsbad, Calif.) containing 10% FBS. PANC1 and CAPAN2 pancreatic cell lines and the A375 Melanoma cell line was grown in DMEM supplemented with 10% FBS. Human aortic endothelial cells (HAECs, Clonetics, San Diego, Calif.) were cultured in endothelial growth medium, supplemented with 5% FBS, according to the manufacturer's instructions. U251MG and U87MG glioma cell lines were maintained in DMEM supplemented with non-essential amino acids, […] β-mercaptoethanol, and 10% FBS. ShRNA cell lines were made by stably transfecting A549 cells with two different shRNA constructs that specifically target Rb obtained from a library. The adenovirus (Ad) constructs Ad-green fluorescent protein (GFP) and Ad-E2F1 were obtained from W. D. Cress. Ad-cyclin D was provided by I. Cozar-Castellano. In vitro library screening assays. Enzyme Linked ImmunoSorbent Assay (ELISA) 96-well plates were coated with 1 μg/mL of a glutathione S-transferase (GST) Raf-1 (1-149aa) overnight at 4° C. […] GST-Rb +/− compounds were then added to the plate and incubated for 90 minutes (min) at 37° C. The amount of Rb bound to Raf-1 was detected by Rb polyclonal antibody (Santa Cruz Biotechnology, Santa Cruz, Calif.) 1:1000 incubated for 60 min at 37° C. Donkey-anti-rabbit-IgG-HRP (1:10,000) was added to the plate and incubated at 37° C. for 60 minutes. The color was developed with orthophenylenediamine (Sigma, St. Louis, Mo.) and the reaction was terminated with 3 molar (M) H2SO4. Absorbance was read at 490 nanometers (nm). To determine disruption of Rb to E2F1, Phb, or HDAC1 the above protocol was used with the exception of coating GST Rb on the ELISA plate and adding the drugs in the presence or absence of GST E2F1, Phb, or HDAC1. E2F1 monoclonal antibody (1:2000) was used to detect the amount of Rb bound to E2F1. Prohibition monoclonal antibody was used at 1:1000 to detect the amount of Rb bound to Prohibition. For disruption of MEK-Raf-1 binding ELISAs, Raf-1 1 microgram/milliliter (μg/mL) was coated on the plate and GST-MEK (20 μg/mL) was incubated +/− the compounds for 30 minutes at room temperature. Mek1 polyclonal antibody was used at 1:1000 to detect the binding of Raf-1 to Mek1. The IC50 concentrations for the Rb:Raf-1 inhibitors were determined by plotting with Origin 7.5 software (Origin, Northampton, Mass.). In vitro binding assays. Glutathione S-transferase (GST) fusion of Rb, Raf-1, E2F1, and MEK1 have been previously described (Dasgupta P, Sun J, Wang S, et al. Mol Cell Biol 2004; 24(21):9527-9541). First, 200 micrograms (pig) of U937 asynchronous lysates were pre-incubated with 10 μM of the indicated drugs or 1 μM of the Raf-1 peptide for 30 minutes at 4° C. Next, 200 μg of the U937 lysates were incubated with glutathione beads carrying an equal amount of the GST fusion proteins in 200 μl of protein binding buffer (20 mM Tris [pH 7.5], 50 mM KCL, 0.5 mM EDTA, 1 mM dithiothreitol, 0.5% NP-40, 3 mg of bovine serum albumin/mL) at 4° C. for 2 h. (Wang S, Ghosh R, Chellappan S. Mol Cell Biol 1998; 18(12):7487-7498). Matrigel Assays. Matrigel (Collaborative Biomedical Products) was used to promote the differentiation of HAECs into capillary tube-like structures (Dasgupta P, Sun J, Wang S, et al. Mol Cell Biol 2004; 24(21):9527-9541). A total of 100 μl of thawed Matrigel was added to 96-well tissue culture plates, followed by incubation at 37° C. for 60 minutes to allow polymerization. […]

[1] = tested on: A549 cells lacking Raf-1 (sh-13B); assay: BrdU incorporation, A549 cells lacking Raf-1; assay type: cell-based, human; details: 20 μM
Method: A549 cells lacking Raf-1 (sh-13B) were generated by stably transfecting a shRNA to Raf-1. Control cells were generated by stably transfecting A549 cells with a control shRNA. The cells were incubated in the presence or absence of compounds 3a, 10b and 10c (20 μM) and S-phase entry was assessed by measuring BrdU incorporation. Relative to controls incubated in the absence of compound, proliferation of the cells with control shRNA (having Raf-1) was inhibited by each of the compounds. In contrast, proliferation of the cells lacking Raf-1 (the cells transfected with Raf-inhibitory shRNA) was not inhibited by the compound. This experiment provides evidence that inhibition of cell proliferation by compounds of the invention is mediated by Raf-1 […].

[2] = read-out: inhibition of the Rb:Raf-1 interaction
[3] = class symbols, 10 μM, read-out: % Inhibition at 10 or 20 μM
[4] = class symbol **, 20 μM, read-out: Inhibition at 10 μM or 20 μM
[5] = at 20 μM, read-out: Inhibition at 10 μM or 20 μM
[6] = first value of cell, concentration not printed (head: 10 μM), read-out: Inhibition at 10 μM or 20 μM

## N=C(N)SCc1ccc(Cl)cc1Cl [Compound 1, reference compound]
Rb:Raf-1 binding; [2]
  inhibition at 20 µM: 100%

## N=C(N)SCc1ccc(Cl)c2ccccc12 [Compound 2, reference compound]
Rb:Raf-1 binding; [2]
  inhibition at 20 µM: 95%

## Cl.N=C(N)SCc1ccc(Cl)cc1Cl [Compound 3a, (2,4-Dichlorophenyl)methyl Isothiourea Hydrochloride]
[1]
  proliferation (S-phase entry, BrdU incorporation): not inhibited

## N=C(N)SCc1ccc(Cl)cc1[N+](=O)[O-] [Compound 3u, (4-Chloro-2-nitrophenyl)methyl Isothiourea Hydrochloride]
Rb:Raf-1 binding; [3]
  inhibition at 10 µM: 25 to 50%

## N=C(N)SCc1ccc(F)cc1Cl [Compound 3v, 2-Chloro-4-fluorophenyl)methyl isothiourea Hydrochloride]
Rb:Raf-1 binding; [3]
  inhibition at 10 µM: 50 to 100%

## N=C(N)SCc1ccc(F)cc1F [Compound 3w, (2,4-Difluorophenyl)methyl isothiourea Hydrochloride]
Rb:Raf-1 binding; [3]
  inhibition at 10 µM: 50 to 100%

## Cl.N=C(N)NC(=N)SCc1ccc(F)cc1Cl [Compound 10a, (2-Chloro-4-fluorophenyl)methyl Amidinoisothiourea Hydrochloride]
Rb:Raf-1 binding; [4]
  inhibition at 20 µM: 50 to 100%
other
  melting point: 154 to 156 °C

## Cl.N=C(N)NC(=N)SCc1ccc(F)cc1F [Compound 10b, (2,4-Difluorophenyl)methyl Amidinoisothiourea Hydrochloride]
Rb:Raf-1 binding; [4]
  inhibition at 20 µM: 50 to 100%
other
  melting point: 144 to 146 °C
[1]
  proliferation (S-phase entry, BrdU incorporation): not inhibited

## Cl.N=C(N)NC(=N)SCc1ccc(Cl)cc1Cl [Compound 10c, (2,4-Dichlorophenyl)methyl Amidinoisothiourea Hydrochloride]
Rb:Raf-1 binding; [4]
  inhibition at 20 µM: 50 to 100%
other
  melting point: 139 to 142 °C
[1]
  proliferation (S-phase entry, BrdU incorporation): not inhibited

## Cl.N=C(N)NC(=N)SCc1ccc(Cl)cc1[N+](=O)[O-] [Compound 10d, (2-Nitro-4-chlorophenyl)methyl Amidinoisothiourea Hydrochloride]
Rb:Raf-1 binding; class symbol +, 10 μM, read-out: Inhibition at 10 μM or 20 μM
  inhibition at 10 µM: 25 to 50%
other
  melting point: 183 to 185 °C

## N#Cc1ccc(CSC(=N)NC(=N)N)cc1 [Compound 10e, (4-Cyanophenyl)methyl Amidinoisothiourea Hydrochloride]
Rb:Raf-1 binding; [5]
  inhibition at 20 µM: 22%
Rb:Raf-1 binding; [6]
  inhibition at 10 µM: 6%

## N=C(N)NC(=N)SCc1cc(Cl)ccc1Cl [Compound 10f, (2,5-Dichlorophenyl)methyl Amidinoisothiourea Hydrochloride]
Rb:Raf-1 binding; [4]
  inhibition at 20 µM: 50 to 100%

## N=C(N)NC(=N)SCc1c(F)cccc1Cl [Compound 10g, (2-Chloro-6-fluorophenyl)methyl Amidinoisothiourea Hydrochloride]
Rb:Raf-1 binding; [4]
  inhibition at 20 µM: 50 to 100%

## N=C(N)NC(=N)SCc1cc2c(cc1Cl)OCO2 [Compound 10h, (6-Chlorobenzo[d][1,3-dioxol-5-yl)methyl Amidinoisothiourea Hydrochloride]
Rb:Raf-1 binding; [4]
  inhibition at 20 µM: 50 to 100%

## N=C(N)NC(=N)SCc1ccc(Cl)c(F)c1 [Compound 10i, (4-Chloro-3-fluorophenyl)methyl Amidinoisothiourea Hydrochloride]
Rb:Raf-1 binding; [5]
  inhibition at 20 µM: 42%
Rb:Raf-1 binding; [6]
  inhibition at 10 µM: 6%

## N=C(N)NC(=N)SCc1c(F)cccc1F [Compound 10j, (2,6-Difluorophenyl)methyl Amidinoisothiourea Hydrochloride]
Rb:Raf-1 binding; [4]
  inhibition at 20 µM: 50 to 100%

## Cl.N=C(N)NC(=N)SCc1ccc2ccccc2c1 [Compound 11a, (2-Naphthyl)methyl Amidinoisothiourea hydrochloride]
Rb:Raf-1 binding; read-out: Inhibition at 10 μM
  inhibition at 10 µM: 50 to 100%
other
  melting point: 175 to 177 °C

## Cl.N=C(N)NC(=N)SCc1ccc2ccccc2c1Br [Compound 11b, 2-(1-Bromonaphthyl)methyl amidinoisothiourea hydrochloride]
Rb:Raf-1 binding; read-out: Inhibition at 10 μM
  inhibition at 10 µM: 50 to 100%
other
  melting point: 160 to 162 °C
